Data set [1] relates to leukemia (CCRF-CEM, HL-60 (TB), K-562, MOLT-4, RPMI-8226, and SR). The experiment in a line: NCI in vitro anticancer screen, leukemia subpanel. Type of data set: cell-based. To be noted: subpanel value, concentration causing 50% cell growth inhibition, read-out: GI50 Leukemia.
In data set [2] the test system is non-small cell lung cancer (A549/ATCC, EKVX, HOP-62, HOP-92, NCI-H226, NCI-H23, NCI-H322M, NCI-H460, and NCI-H522). The experiment in a line: NCI in vitro anticancer screen, non-small-cell lung cancer subpanel. Type of data set: cell-based, human.
The subject of data set [3] is colon cancer (COLO 205, HCC-2998, HCT-116, HCT-15, HT29, KM12, and SW-620). The experiment in a line: NCI in vitro anticancer screen, colon cancer subpanel. To be noted: subpanel value, read-out: GI50 Colon cancer. Type of data set: cell-based, human.
For data set [4], the system named is CNS cancer (SF-268, SF-295, SF-539, SNB-19, SNB-75, and U251). The experiment in a line: NCI in vitro anticancer screen, CNS cancer subpanel. Type of data set: cell-based, human. To be noted: subpanel value, read-out: GI50 CNS cancer.
For data set [5], the system named is melanoma (LOX IMVI, MALME-3M, M14, SK-MEL-2, SK-MEL-28, SK-MEL-5, UACC-62, and UACC-257). The data set is described as follows: NCI in vitro anticancer screen, melanoma subpanel. The conditions noted are these: subpanel value, read-out: GI50 Melanoma. Type of data set: cell-based, human.
For data set [6], the system named is ovarian cancer (IGROV1, OVCAR-3, OVCAR-4, OVCAR-5, OVCAR-8, and SK-OV-3). The experiment in a line: NCI in vitro anticancer screen, ovarian cancer subpanel. Type of data set: cell-based, human. To be noted: subpanel value, read-out: GI50 Ovarian cancer.
Data set [7] concerns renal cancer (786-0, A498, ACHN, CAKI-1, RXF 393, SN12C, TK-10, and UO-31). The experiment in a line: NCI in vitro anticancer screen, renal cancer subpanel. Type of data set: cell-based, human. To be noted: subpanel value, read-out: GI50 Renal cancer.
Data set [8] has as its system prostate cancer (PC-3 and DU-145). The data set is described as follows: NCI in vitro anticancer screen, prostate cancer subpanel. Type of data set: cell-based, human. The conditions noted are these: subpanel value, read-out: GI50 Prostate cancer.
Data set [9] concerns breast cancer (MCF7, MCF7/ADR-RES, MDA-MB-231/ATCC, HS 578T, MDA-MB-435, MDA-N, and T-47D). The data set is described as follows: NCI in vitro anticancer screen, breast cancer subpanel. Type of data set: cell-based, human. To be noted: subpanel value, read-out: GI50 Breast cancer.
For data set [10], the system named is NCI's full panel of 60 human cancer cell lines. The experiment in a line: NCI in vitro anticancer screen, full panel mean. Type of data set: cell-based.
A further data set relates to A549/ATCC. The data set is described as follows: NCI in vitro anticancer screen, A549/ATCC. Type of data set: cell-based, human. The conditions noted are these: non-small-cell lung cancer cell line.
For the next data set, the system named is EKVX. The experiment in a line: NCI in vitro anticancer screen, EKVX. The conditions noted are these: non-small-cell lung cancer cell line. Type of data set: cell-based, human.
A further data set has as its system HOP-62. The experiment in a line: NCI in vitro anticancer screen, HOP-62. Type of data set: cell-based, human.
A further data set deals with HOP-92. The data set is described as follows: NCI in vitro anticancer screen, HOP-92. Type of data set: cell-based, human.
A further data set relates to NCI-H226. The experiment in a line: NCI in vitro anticancer screen, NCI-H226. To be noted: non-small-cell lung cancer cell line. Type of data set: cell-based, human.
A further data set has as its system NCI-H23. The data set is described as follows: NCI in vitro anticancer screen, NCI-H23. Type of data set: cell-based, human. To be noted: non-small-cell lung cancer cell line.
For another data set, the system named is NCI-H322M. The data set is described as follows: NCI in vitro anticancer screen, NCI-H322M. Type of data set: cell-based, human. To be noted: non-small-cell lung cancer cell line.
In a further data set the test system is NCI-H460. The data set is described as follows: NCI in vitro anticancer screen, NCI-H460. Type of data set: cell-based, human.
The test system of a further data set is NCI-H522. The experiment in a line: NCI in vitro anticancer screen, NCI-H522. Type of data set: cell-based, human.
[11] abbreviates: Homo sapiens, subpanel value, read-out: GI50 Non-small-cell lung cancer.
Where [12] appears, read: Homo sapiens, mean values over all cell lines tested, read-out: GI50 MG_MID.
The mark [13] stands for this setting: mean over all cell lines, read-out: mean GI50.
Setting [14] is: non-small-cell lung cancer cell line.

Each structure is given as a SMILES string. Where two headings read alike, the source gives them in different places.

As to `CO/N=C(\C)c1ccc(Nc2c3ccccc3nc3occc23)cc1` [Compound 8b, (E)-1-[4-(Furo[2,3-b]quinolin-4-ylamino)phenyl]ethanone O-Methyloxime], the melting point (in general, the temperature, or range, at which the solid turns liquid) fell in the range of 167 to 168 °C. For the same compound, the GI50 (as a rule, the concentration giving 50% growth inhibition) in data set [1] (Homo sapiens) worked out at 360 nM. Besides, the GI50 in data set [2] (setting [11]) worked out at 2580 nM. For the same compound, the GI50 in [3] (Homo sapiens) came out at 320 nM. In data set [4] (Homo sapiens), the GI50 was 570 nM. In addition, the GI50 in data set [5] (Homo sapiens) stood at 1270 nM. In data set [6] (Homo sapiens), the 50% growth inhibitory concentration (GI50) was 660 nM. For the same compound, in [7] (Homo sapiens), the 50% growth inhibitory concentration (GI50) was 1630 nM. In data set [8] (Homo sapiens, DU-145), the GI50 was determined as 580 nM. Also, the GI50 in data set [9] (Homo sapiens) amounted to 410 nM. Further, in [10] (setting [12]), the GI50 amounted to 480 nM. Besides, the GI50 in data set [10] (setting [13]) came out at 480 nM. In the data set on A549/ATCC (Homo sapiens, A549), the 50% growth inhibitory concentration (GI50) is 720 nM. This compound displayed a 50% growth inhibitory concentration (GI50) with EKVX (Homo sapiens, EKVX) of 3.78 µM. Halving of growth in the data set on HOP-62 (Homo sapiens, HOP-62, non-small-cell lung cancer cell line) (GI50) required 350 nM. For the same compound, in the data set with HOP-92 (Homo sapiens, HOP-92, non-small-cell lung cancer cell line), growth was halved (GI50) at 12.1 µM. The GI50 in the data set with NCI-H226 (Homo sapiens, NCI-H226) was 3.88 µM. The GI50 in the data set with NCI-H23 (Homo sapiens, NCI-H23) turned out to be 570 nM. In the data set on NCI-H322M (Homo sapiens, NCI-H322M), this compound had a 50% growth inhibitory concentration (GI50) of 1220 nM. In the data set with NCI-H460 (Homo sapiens, NCI-H460, non-small-cell lung cancer cell line), this compound yielded a GI50 of 560 nM. For the same compound, the GI50 with NCI-H522 (Homo sapiens, NCI-H522) is under 10 nM. In addition, the GI50 in the data set on NCI-H522 (setting [14]) is under 10 nM.

In the case of `C/C(=N\O)c1ccc(Nc2c3ccccc3nc3occc23)cc1` [Compound 8a, (E)-1-[4-(Furo[2.3-b]quinolin-4-ylamino)phenyl]ethanone oxime], the concentration for 50% growth inhibition (GI50) came out at 140 nM in data set [1]; 4440 nM in [2] (subpanel value, read-out: GI50 Non-small-cell lung cancer); 170 nM in data set [3]; 350 nM in data set [4]; 950 nM in data set [5]; 530 nM in data set [6]. In addition, the GI50 in data set [7] stood at 2680 nM; in data set [8] it was 530 nM; in data set [9] it was 420 nM; in [10] (setting [13]), 350 nM; in data set [10] (mean values over all cell lines tested, read-out: GI50 MG_MID) it was 350 nM; with A549/ATCC, 450 nM. The GI50 worked out at 4.03 µM with EKVX; 180 nM with HOP-62 (setting [14]); 10.9 µM with HOP-92 (setting [14]); 11.5 µM in the data set on NCI-H226; 380 nM in the data set with NCI-H23; 12200 nM with NCI-H322M. Moreover, the GI50 with NCI-H460 (setting [14]) worked out at 210 nM; with NCI-H522, 74 nM; in the data set with NCI-H522 (setting [14]) it was 74 nM.

On to `CC(=O)c1ccc(Nc2c3ccccc3nc3occc23)cc1` [Compound 5, 1-[4-(Furo[2,3-b]quinolin-4-ylamino)phenyl]ethanone], for which the melting point lay within 220 to 221 °C. In addition, the GI50 in data set [1] (Homo sapiens) is under 10 nM. In addition, the 50% growth inhibitory concentration (GI50) in [2] (Homo sapiens, read-out: average GI50 non-small-cell lung cancer) stood at 1750 nM. In data set [2] (setting [11]), the GI50 was determined as 1750 nM. For the same compound, in [3] (Homo sapiens), the GI50 amounted to 11 nM. Moreover, the GI50 in data set [4] (Homo sapiens) turned out to be 16 nM. Moreover, the GI50 in [5] (Homo sapiens) amounted to 18 nM. Also, in [6] (Homo sapiens), the GI50 came to 39 nM. In addition, the GI50 in data set [7] (Homo sapiens) came out at 35 nM. In addition, the GI50 in data set [8] (Homo sapiens, DU-145) was determined as 21 nM. Besides, the GI50 in [9] (Homo sapiens) turned out to be 17 nM. Further, in [10] (Homo sapiens, all types of cancer cells tested except non-small-cell lung cancer, read-out: mean GI50 in each type of cancer cells), the GI50 was under 40 nM. The concentration for 50% growth inhibition (GI50) in [10] (setting [12]) was 25 nM. For the same compound, the GI50 in [10] (setting [13]) came to 25 nM. In the data set on A549/ATCC (Homo sapiens, A549), this compound returned a GI50 of 570 nM. This compound also showed a GI50 with HOP-62 (Homo sapiens, HOP-62) of under 10 nM. This compound returned a GI50 in the data set on HOP-62 (setting [14]) of under 10 nM. Besides, it took 12.4 µM to inhibit growth in the data set with HOP-92 (Homo sapiens, HOP-92) by half (GI50). The same compound registered a 50% growth inhibitory concentration (GI50) with NCI-H226 (Homo sapiens, NCI-H226) of 0.31 µM. In the data set on NCI-H23 (Homo sapiens, NCI-H23), this compound showed a GI50 of 37 nM. The compound also came in with a GI50 with NCI-H322M (Homo sapiens, NCI-H322M) of 680 nM. This compound also showed a GI50 in the data set with NCI-H460 (Homo sapiens, NCI-H460) of 10 nM. The same compound showed a GI50 in the data set with NCI-H522 (Homo sapiens, NCI-H522) of under 10 nM. Moreover, in the data set on NCI-H522 (setting [14]), the GI50 was under 10 nM.

`Nc1cc(CO)cc(Nc2c3ccccc3nc3occc23)c1` [Compound 4, 3-(Furo[2,3-b]quinolin-4-ylamino)-5-(hydroxymethyl)aniline] showed a melting point of 236 to 237 °C. In addition, in [1] (Homo sapiens), the GI50 is 23000 nM. Further, in data set [2] (setting [11]), the GI50 was determined as 40900 nM. Also, the GI50 in [3] (Homo sapiens) was determined as 25200 nM. The 50% growth inhibitory concentration (GI50) in data set [4] (Homo sapiens) turned out to be 45900 nM. Moreover, in [5] (Homo sapiens), the GI50 stood at 38600 nM. In addition, the GI50 in data set [6] (Homo sapiens) was determined as 47700 nM. Further, the GI50 in [7] (Homo sapiens) worked out at 37700 nM. Further, in data set [8] (Homo sapiens, DU-145), the GI50 was found to be 53600 nM. In addition, the GI50 in data set [9] (Homo sapiens) is 23800 nM. Also, the GI50 in [10] (setting [12]) was determined as 31100 nM.

Values taken from patent publication US6750223B2, “4-Anilino[2,3-b]quinoline derivatives, their preparation processes and pharmaceutical compositions comprising the same” (Kaohsiung Medical University, priority 2002, dated 2004).
